Measured values published in patent publication US20120021979A1 (Vanderbilt University, priority 2010, published 2012).

Key:
[1] = test system: DAT; assay: radiolabeled DA [3H-DA] uptake in striatal slices; format: cell-based; conditions: 100 nM for 10 min, 3H-DA 10 min, vs vehicle
Experimental: Slices were exposed to ^3H-DA for 10 min and then washed to remove excess DA at 4° C. to stop uptake. Slices were homogenized and ^3H-DA quantified by a scintillation counter.

[2] = test system: Na+/K+ ATPase; assay: slice based biotinylation, Na+/K+ ATPase surface expression in striatal slices; format: cell-based; conditions: 100 nM, 20 min, rat striatal slices, vs vehicle
Description: In addition, the absence of tyrosine hydroxylase (TH, a cytosolic protein found in DAT terminals) from the biotinylated surface fraction serves a control for the integrity of our slice preparation and specificity of the surface signal.

[3] = test system: DAT; assay: chronoamperometry of AMPH-induced DA efflux in striatal slices; format: cell-based; conditions: pretreatment 100 nM for 20 min, AMPH 10 μM
Description: Chronoamperometry was used to evaluate AMPH-induced DA efflux in striatal slices.

[4] = target: T1, GLP-1 receptor (Rattus norvegicus, UniProt P32301); assay: locomotor activity with or without AMPH; format: in vivo
T1 construct: from tissue; host or cells: whole animal (in vivo, i.p. dosing)
T1 sequence (P32301 22-463): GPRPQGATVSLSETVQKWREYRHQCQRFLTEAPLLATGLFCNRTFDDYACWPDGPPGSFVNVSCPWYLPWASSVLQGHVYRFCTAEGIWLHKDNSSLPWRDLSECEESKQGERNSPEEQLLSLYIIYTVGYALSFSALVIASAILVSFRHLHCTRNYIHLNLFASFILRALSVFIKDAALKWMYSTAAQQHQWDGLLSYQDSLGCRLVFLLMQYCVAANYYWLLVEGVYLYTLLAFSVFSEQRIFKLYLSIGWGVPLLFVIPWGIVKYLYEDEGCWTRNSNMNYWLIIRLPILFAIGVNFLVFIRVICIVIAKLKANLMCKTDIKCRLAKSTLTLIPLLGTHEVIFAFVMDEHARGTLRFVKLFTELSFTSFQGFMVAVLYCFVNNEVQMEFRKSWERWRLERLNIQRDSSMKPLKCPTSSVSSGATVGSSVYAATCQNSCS

Row | AMPH-induced locomotor activity ([4]; 30 μg/kg i.p. 90 min prior to AMPH 2.78 mg/Kg i.p.) | basal locomotion ([4]; 30 μg/kg i.p., absence of AMPH) | Substance | DA uptake (3H-DA) [1] | surface expression of the Na+/K+ ATPase [2] | AMPH-induced increase in extracellular DA [3]
1 | – | – | Glucagon-like peptide-1 [GLP-1] | significantly increased | did not affect | significantly potentiates
2 | significantly decreased | significantly decreased | exendin-4 [EX4] | – | – | –
